Results as given in patent US5571816A, “Pyrimidines” (Hoechst Aktiengesellschaft, priority 1992, dated 1996).
Where a name gives a salt, the structure may show the parent alone. Read-outs that look alike come from different tables or passages of the source.

How the values were obtained:
[1] = tested on: LDL receptor mRNA; test: Stimulation of LDL receptor mRNA expression in HepG2 cells (Northern blot); format: cell-based; conditions: Homo sapiens; HepG2, 2 × 10^-6 M, 16 h; control = 100%; ratio to β-actin mRNA
Procedure: 1a. In the human hepatocytoma cell line HepG2, which is recognized everywhere as model, the LDL receptor mRNA levels are increased by the compounds of the formula I (Table I).
(§1) The mRNA was prepared by the method described by Chomczynski, P. and Sacchi, N., in Anal. Biochem. 162, 156-159 (1987). In the case of organs (such as, for example, liver), the deep-frozen tissue was previously homogenized on dry ice in a mortar, and the mRNA was further concentrated by means of oligo dT by standard methods (cf. Sambrook, J., Fritsch, E. F. and Maniatis, T., Molecular Cloning, second edition, Cold Spring Harbor (1989); this collection of methods also includes descriptions of all the other relevant standard processes of molecular biology used here). 5 to […] of the dissolved mRNA obtained in this way were denatured by standard processes and fractionated on 1% horizontal agarose gels. The mRNA was transferred by capillary blotting to Hybond N membranes (Amersham). Used as specific hybridization probe was a partial LDL receptor cDNA clone and as internal standard was a plasmid which contained a β-actin gene. Both plasmids were labeled using a random primer kit from Amersham to a specific activity of 5×10^9 cpm/μg. Prehybridization, hybridization and washing of the filters took place by standard processes. The filters were subsequently exposed on Cronex 4 films (Dupont) in the presence of an intensifying screen at -70° C. overnight or for up to 14 days, and the hybridization signals were quantified from the intensity of blackening of the film using a commercially available laser densitometer. Subsequently, the quotient of the intensity of the LDL receptor band and of the actin band was determined as internal standard to correct for variations in yield.
The HepG2 cells were incubated in RPMI 1640 standard medium with fetal calf serum (final concentration 10%). Serum-free RPMI medium was used as induction control. Subsequently, the complete mRNA was prepared and, by means of the Northern blot technique, the relevant LDL receptor mRNA and β-actin mRNA levels were determined. The quotient of the LDL receptor mRNA signal and of the β-actin mRNA signal of the control (without added substance) was set equal to 100%, and the stimulation above this of the LDL receptor mRNA levels achieved under the influence of the compounds was expressed as percentage of the control.

[2] = tested on: LDL receptor mRNA; test: Stimulation of LDL receptor mRNA expression in rat livers (Northern blot); format: in vivo; conditions: rat liver, 30 mg/kg, 6 hours after administration; untreated control = 100%
Procedure: 1b. The LDL receptor mRNA levels are also raised in rat livers by compounds of the formula I within a few hours (Table II).
as §1
Liver tissue was removed and shock-frozen in liquid nitrogen.
Subsequently, the mRNA was isolated as described and, by means of the Northern blot technique, the relative LDL receptor mRNA levels were determined. The mRNA level of untreated control animals was set equal to 100%, and the stimulation of the LDL receptor mRNA was calculated as a percentage of the […]

[3] = tested on: serum lipoproteins; test: Effect on serum lipoproteins of normolipemic male rats in a subchronic experiment; format: in vivo; conditions: Rattus norvegicus, po, by stomach tube, 7 administrations; for change in vivo at 3 mg/kg: 3 mg/kg/day; for change in vivo at 10 mg/kg: 10 mg/kg/day; for change in vivo at 30 mg/kg: 30 mg/kg/day
Procedure: 3. In vivo, the increased LDL receptor activity in experimental animals is reflected by reduction in the lipoprotein fractions which can be metabolized by the LDL receptor (apoB/E receptor), i.e. a reduction in the LDL and VLDL levels is observed. The following test was carried out:
Effect on serum lipoproteins of normolipemic male rats in a subchronic experiment
Groups of in each case 10 male rats of the HOE: WISKf (SPF 71) strain with an initial weight above 180 g received once a day (in the morning) the test product or the comparison product in 1% aqueous ®Tylose MH 300 solution by stomach tube (0.5 ml/100 g of body weight); the control group in each case received only the vehicle. The last (7th) administration took place 24 hours before removal of blood and sacrifice. There was free access to food and water during the test. The food was withdrawn 24 hours before the removal of blood.
The serum from all 10 rats in a group was pooled for the analysis of the serum lipoproteins. The serum lipoproteins were separated with a preparative ultracentrifuge (KONTRON TGA 65, Rotor BECKMAN 50.4 Ti).
The following conditions specified by Koga, S., Horwitz, D. L., and Scanu, A. M., Journal of Lipid Research 10, 577 (1969) and Havel, R. J., Eder, H. A., and Bragdon, H. H., J. Clin. Invest. 34, 1345 (1955) were used to separate VLDL and LDL: 1. VLDL: Density<1.006, 40,000 rpm for 16 hours 2. LDL: Density 1.006-1.04, 40,000 rmp for 16 hours
Test kits from BOEHRINGER/Mannheim were used for the enzymatic determination of cholesterol and triglycerides in the separated lipoprotein fractions (cf. Siedel, J., Schlumberger, H., Klose, S., Ziegenhorn, J. and Wahlefeld, A. W., J. Clin. Chem. Clin. Biochem. 19, 838 (1981) and Wahlefeld, A. W., in: H. O. Bergmeier: Methoden der enzymatischen Analyse (Methods of Enzymatic Analysis), 2nd edition, Volume II, Verlag Chemie 1974, page 1878). The proteins were determined by the method of Lowry (Lowry, O. H., Roseborough, N. H., Farr, A. L. and Randell, R. J., J. Biol. Chem. 193, 265 (1951)).
Clofibrate was used as comparison product.

[4] = Solubility in water of salts (and free bases); format: physicochemical; conditions: Table 2, salts of compounds I, temp. by No. [°C]: 1 25.5, 2 23.0, 3 22.4, 4 22.4, 5 22.0, 6 25.0, 7 25.5, 8 25.5, 9 25.5, 10 23.5, 11 23.5, 12 25.0, 13 24.0, 14 23.0, 15 22.0, 16 24.5, 17 22.5, 18 22.0; for solubility: water, read-out: Solubility in water, Concentration in % by wt.
[5] = read-out: Serum LDL cholesterol, % change from control at end of treatment
[6] = read-out: Serum LDL protein, % change from control at end of treatment
[7] = read-out: Serum VLDL cholesterol, % change from control at end of treatment
[8] = read-out: Serum VLDL protein, % change from control at end of treatment
[9] = read-out: Serum VLDL triglycerides, % change from control at end of treatment

| 1 part by mass dissolves in ... parts by H2O [4] [parts by H2 O] | solubility [4] [mg/mL] | Compound | activity at 2 µM [1] [%] | LDL receptor mRNA [2] [%] | change in vivo at 3 mg/kg [3, 5] [%] | change in vivo at 3 mg/kg [3, 6] [%] | change in vivo at 3 mg/kg [3, 7] [%] | change in vivo at 3 mg/kg [3, 8] [%] | change in vivo at 3 mg/kg [3, 9] [%] | change in vivo at 10 mg/kg [3, 5] [%] | change in vivo at 10 mg/kg [3, 6] [%] | change in vivo at 10 mg/kg [3, 7] [%] | change in vivo at 10 mg/kg [3, 8] [%] | change in vivo at 10 mg/kg [3, 9] [%] | change in vivo at 30 mg/kg [3, 5] [%] | change in vivo at 30 mg/kg [3, 6] [%] | change in vivo at 30 mg/kg [3, 7] [%] | change in vivo at 30 mg/kg [3, 8] [%] | change in vivo at 30 mg/kg [3, 9] [%] |
| --- | --- | --- | --- | --- | --- | --- | --- | --- | --- | --- | --- | --- | --- | --- | --- | --- | --- | --- | --- |
|  |  | CC1(C)CN(c2ncc(C(=O)N(c3cccc(C(F)(F)F)c3)C3CCCC3)c(N)n2)C(=O)N1 [Example 42] | 180 | 312 | -34 | -22 | -23 | -11 | -29 | -29 | -9 | -23 | -10 | -29 | -48 | -29 | -70 | -40 | -61 |
|  |  | CCC(C)N(C(=O)c1cnc(N2CC(C)(C)NC2=O)nc1N)c1cccc(C(F)(F)F)c1 (centres unmarked) [Example 8, 4-amino-2-(4,4-dimethyl-2-oxo-1-imidazolidinyl)-pyrimidine-5-carboxylic acid N-sec.-butyl-N-(3-trifluoromethylphenyl)amide hydrochloride] | 237 |  |  |  |  |  |  |  |  |  |  |  | -30 | -18 | -39 | -26 | -37 |
|  |  | CC(C)N(C(=O)c1cnc(N2CC(C)(C)NC2=O)nc1N)c1cccc(C(F)(F)F)c1 [Example 4, 4-amino-2-(4,4-dimethyl-2-oxo-1-imidazolidinyl)pyrimidine-5-carboxylic acid N-isopropyl-N-(3-trifluoromethylphenyl)amide hydrochloride] | 205 | 221 |  |  |  |  |  | -39 | -33 | 2 | -18 |  | -68 | -53 | -70 | -13 | -29 |
|  |  | CC1(C)CN(c2ncc(C(=O)N(CC3CC3)c3cccc(C(F)(F)F)c3)c(N)n2)C(=O)N1 [Example 12, 4-amino-2-(4,4-dimethyl-2-oxo-1-imidazolidinyl)pyrimidine-5-carboxylic acid N-cyclopropylmethyl-N-(3-trifluoromethylphenyl)amide hydrochloride] | 170 |  | -26 | -5 | -6 | -8 | -4 | 46 | -18 | -63 | -34 | -51 | -66 | -30 | -80 | -51 | -29 |
| 19.8 | 48.1 | CN(C(=O)c1cnc(N2CCNC2=O)nc1N)c1cccc(C(F)(F)F)c1 [Example 64, 4-amino-2-(2-oxo-1-imidazolidinyl)pyrimidine-5-carboxylic acid N-methyl-N-(3-trifluoromethylphenyl)amide hydrochloride] |  |  |  |  |  |  |  |  |  |  |  |  | -20 | -10 | -18 | -28 |  |
| 53.3 | 19.1 | CC(C)(C)CN(C(=O)c1cnc(N2CC(C)(C)NC2=O)nc1N)c1cccc(C(F)(F)F)c1 [Example 37] |  |  |  |  |  |  |  | -39 | -21 | -56 | -30 | -40 | -76 | -49 | -85 | -48 | -75 |
